Data from US4831029A, “Condensed cyclic triazole derivatives, pharmaceutical compositions and use” (priority 1986, dated 1989).
Structures can show the parent of a compound that is named as a salt.

Legend:
Type in all cases: in vivo
[1] = Yohimbine potentiating effect
Procedure: The yohimbine potentiating effect is determined by the method of R. M. Quinton: Brit. […] Scand.

[2] = Spasmolytic effect (inhibition of tetracor spasms); conditions: for ED50: inhibition of tetracor spasms
From the text: (§1) The following test methods are used: Motility inhibition test: J. Borsy, E. Csanyi, J. Lazar: J. Arch. Int. Pharmacodyn. 124, 1-2 (1960); Inhibition of tetracor spasms: R. Benzinger, D. Hane: Arch. Int Pharmacodyn. 167, 245-249 (1967).

[3] = Hexobarbital narcosis potentiating effect; conditions: for Hexobarbital narcosis potentiating effect T.I. (therapeutical index): narcosis potentiation; for ED50: positive = narcosis time lengthened to at least 2.5-fold of control
Procedure: In the hexobarbital narcosis potentiating test those animals are regarded as showing positive reaction in which the average narcosis time is lengthened to at least 2.5-fold of that of the control group.
The ED50 values are calculated from the data thus transformed.

[4] = Motility inhibiting effect; conditions: for Motility inhibiting effect T.I. (therapeutical index): motility inhibition; for ED50: read-out: Motility inhibiting effect ED50
From the text: as §1

## CN(C)CCC=C1c2ccccc2CCc2ccccc21 [Amitriptilin, reference compound]
[1]; method of Quinton, read-out: Yohimbin potentiating effect ED50
  ED50: 12.5 mg/kg

## CSc1nc2n(CCCN3CCOCC3)c3c(c(=O)n2n1)CN(Cc1ccccc1)CC3 [Example 19g, 7-Benzyl-2-methylthio-10-(3-morpholino-propyl)-6,7,8,9-tetrahydro-pyrido[4,3-d]-1,2,4-triazolo[1,5-a]pyrimidine-5(10H)-one fumarate]
[2]
  Spasmolytic effect T.I. (therapeutical index): 8.5
  ED50: 100 mg/kg

## CN(C)CCCn1c2c(c(=O)n3nc(N4CCOCC4)nc13)CCN(Cc1ccccc1)C2 [Example 19, 8-Benzyl-10-(3-dimethylaminopropyl)-2-morpholino-6,7,8,9-tetrahydro-pyrido[3,4-d]-1,2,4-triazolo[1,5-a]pyrimidine-5(10H)-one]
[3]
  Hexobarbital narcosis potentiating effect T.I. (therapeutical index): 6.0
  ED50: 200 mg/kg
[4]
  Motility inhibiting effect T.I. (therapeutical index): 6.0
[4]; motility inhibition test
  ED50: 200 mg/kg

## O=c1c2c(n(CCN3CCCCC3)c3nc(N4CCOCC4)nn13)CCN(Cc1ccccc1)C2 [Example 18, 7-Benzyl-2-morpholino-10-(2-piperidinoethyl)-6,7,8,9-tetrahydro-pyrido[4,3-d]-1,2,4-triazolo[1,5-a]pyrimidine-5(10H)-one]
[2]
  Spasmolytic effect T.I. (therapeutical index): 6.6
  ED50: 150 mg/kg

## O=c1c2c(n(CCN3CCCC3)c3nc(N4CCOCC4)nn13)CN(Cc1ccccc1)CC2 [Example 20, 8-Benzyl-2-morpholino-10-(2-pyrrolidinoethyl)-6,7,8,9-tetrahydro-pyrido[3,4-d]-1,2,4-triazolo[1,5-a]pyrimidine-5(10H)-one]
[2]
  Spasmolytic effect T.I. (therapeutical index): 6.5
  ED50: 155 mg/kg

## CN1C(=O)OC(C)(C)C1=O [Trimetadion, reference compound]
[2]
  ED50: 490 mg/kg

## O=c1c2c(n(CCN3CCCCC3)c3nc(N4CCOCC4)nn13)CN(Cc1ccccc1)CC2 [Example 19c, 8-Benzyl-2-morpholino-10-(2-piperidino-ethyl)-6,7,8,9-tetrahydro-pyrido[3,4-d]-1,2,4-triazolo[1,5-a]pyrimidine-5(10H)-one]
[2]
  Spasmolytic effect T.I. (therapeutical index): 6.7
  ED50: 150 mg/kg
[1]; T.I.=therapeutical index, yohimbine potentiation
  Yohimbin potentiating effect T.I. (therapeutical index): 47

## CCCC(C)(COC(N)=O)COC(N)=O [Meprobamat, reference compound]
[3]
  Hexobarbital narcosis potentiating effect T.I. (therapeutical index): 4.1
  ED50: 260 mg/kg
[4]
  Motility inhibiting effect T.I. (therapeutical index): 4.1
  ED50: 270 mg/kg
